System: GDNF
Experiment: Western blot of GDNF protein in astroglial cells
Format: cell-based, rat
Conditions: memantine 10 μM
Description: GDNF mediated memantine-induced neurotrophic effects. Rat primary astroglia were exposed to 10 μM memantine for various time points ranging from 0 minute to 24 h. (FIG. 5A) Total RNA was extracted. […] (FIG. 5B) The ratio of densitometry values of GDNF and β-actin was analyzed and normalized to 0 min value. (FIG. 5C) Total protein of astroglial cells was extracted. Western blot analyses were performed with the antibody to GDNF. GAPDH was used as loading control. (FIG. 5D) The ratio of densitometry values of GDNF and GAPDH was analyzed and normalized to 0 min value. Values were expressed as mean±S.E.M. of three independent experiments. *p<0.05, **p<0.01, ***p<0.001, Bonferroni t-test vs 0 min for FIG. 5B and FIG. 5D; (FIG. 5E) Neuron-glia cultures were treated with either control goat IgG (isotype Ab), or goat anti-GDNF, combined with memantine (10 μM) treatment. DA uptake capacity was measured 7 days later. Results were expressed as a percentage of the vehicle-treated control cultures and represented mean±S.E.M. of three independent experiments performed in triplicate. *p<0.05, **p<0.01, ***p<0.001, Bonferroni's test vs control; #p<0.05, Bonferroni t-test vs memantine treated cultures.
Mixed-glia cultures were first prepared from brains of 1-day-old Fisher 344 rat pups, as described previously. Briefly, mechanically dissociated brain cells (5×10^7) were seeded onto 150-cm^2 culture flasks in Dulbecco's modified Eagle's medium containing 10% heat-inactivated FBS, 2 mM L-glutamine, 1 mM sodium pyruvate, 100 μM non-essential amino acids, 50 U/ml penicillin and 50 μg/ml streptomycin. The cultures were maintained at 37° C. in a humidified atmosphere of 5% CO2 and 95% air, and medium was replenished 4 days after the initial seeding. Upon reaching confluence (usually 12-14 days later), microglia were detached from astrocytes by shaking the flasks at a speed of 180 r.p.m. for 5 h. Astrocytes were then detached with trypsin-ethylenediaminetetraacetic acid (EDTA) and seeded in the same culture medium. […]

## CC12CC3CC(C)(C1)CC(N)(C3)C2.Cl [MMT, 1-amino-3,5-dimethyladamantane hydrochloride]
6 h
  GDNF protein level vs vehicle-treated control: significantly increased level
12 h
  GDNF protein level vs vehicle-treated control: peaked
24 h
  GDNF protein level vs vehicle-treated control: still expressed

From patent US20150080475A1, “Memantine Protects Inflammation-Related Degeneration of Dopamine Neurons Through Inhibition of Over-Activated Microglia and Release of Neurotrophic Factors From Astroglia” (priority 2009, published 2015)
